From US10220024B2, “Method of inhibiting cancer cell, method for detecting cancer cell, and system for detecting cancer cell” (CANON KABUSHIKI KAISHA, priority 2012, dated 2019) come the findings set out here.

The structures appear in SMILES notation. Read-outs that look alike come from different tables or passages of the source. Bounds are passed on as bounds.

The test system of assay [1] is Prostatic cancer cells, PC-3. The assay is described as follows: Cancer cell inhibitory (growth suppressive) action against prostatic cancer cells, CellTiter-Glo viable cell count. In kind it is cell-based. The following applies: PC-3, 10 μg/mL, 24 hours. As for the experimental part:
Prostatic cancer cells, PC-3, were pre-cultured in RPMI1640 medium containing 10% FBS at 37° C. in a 5% CO2 ambient. Thereafter, 4,000 cells were seeded per well of a 96-well plate and further cultured for 24 hours. Subsequently, Compound (11) was added to the medium so as to obtain a final concentration of 10 μg/mL and cultured at 37° C. for 24 hours in a 5% CO2 ambient. The cultured cells were analyzed for viable cell count according to CellTiter-Glo Luminescent Cell Viability Assay (manufactured by Promega KK.). As a reference, the number of cells cultured in a medium containing a 0.1% dimethylsulfoxide solution (hereinafter, simply referred to as DMSO) in place of a medium containing Compound (11), in the aforementioned operation, was used as 100.
Viable cell count was analyzed in the same manner as in Experimental Example 8 except that the compounds shown in Table 3 were used in place of Compound (11) of Experimental Example 8.
Viable cell count was analyzed in the same manner as in Experimental Example 8 except that comparative compounds 1 to 4 were used in place of Compound (11) of Experimental Example 8.
The growth rate in Examples herein is a numerical value of the number of cells obtained after culture relative to the number of cells (regarded as 100) grown in a medium containing 0.1% DMSO.
Evaluation of cancer cell inhibition against the prostatic cancer cells (PC-3) was made as follows. • A: Cancer cell growth rate is less than 20% (cancer cell inhibitory (growth suppressive) effect is extremely high) • B: Cancer cell growth rate is 20% or more and less than 50% (cancer cell inhibitory (growth suppressive) effect is high) • C: Cancer cell growth rate is 50% or more (cancer cell inhibitory (growth suppressive) effect is low)
In general terms: In ATP-based viability assays light output follows the ATP content of the culture.

A further assay has as its system K562 ALDH (−) cells. Nature of the assay: Cancer stem-cell selective staining, fluorescent microscopy, ALDH (−) cells. In kind it is cell-based, Human. The following applies: cells cultured for 24 hours in Experimental Example 16 (1 μg/mL). Here is the method:
The cells cultured for 24 hours in Experimental Example 16 were subjected to nuclear staining with Hoechest33342 (manufactured by Dojindo Laboratories) and a fluorescent image observed under AXIOVERT200M inverted fluorescent microscope (manufactured by Carl Zeiss) was photographed.

With `COc1ccc(N2c3ccc(/C=C/C4=[N+](C)c5ccccc5C4(C)C)cc3C3CCCC32)cc1` (stereo not drawn) [Compound 11], the activity at 10 µg/mL in assay [1] (read-out: Evaluation (cancer cell growth rate)) was less than 20%; in assay [1] (relative to 0.1% DMSO (100), read-out: Cancer cell growth rate (%)), 6.7%. Besides, the “ALDH(−) (ratio of ALDH (−) cells stained)” value in the assay with K562 ALDH (−) cells was 48.5%.
